Results reported in patent publication US11230525B2, “Organic sulfur compound, method for preparing same, and pharmaceutical composition for preventing or treating cancer or an inflammatory disease, containing same as active ingredient” (SOOKMYUNG WOMENS UNIVERSITY INDUSTRY-ACADEMIC COOPERATION …, priority 2016, dated 2022).

Legend:
[1] = test system: gastric cancer cell line (NUGC-3); experiment: Cancer proliferation inhibitory activity (SRB, GI50), NUGC-3; format: cell-based; conditions: Homo sapiens, 48 hours
Excerpt: (§1) Particularly, the cancer proliferation inhibitory activity of the compounds of comparative examples (Ajoene and the compounds isosteric to Ajoene wherein R1 is allyl or benzyl) and the compounds of examples of the present invention (the compounds not isosteric to Ajoene wherein R^1 is phenyl) was investigated in human cancer cell lines (renal cancer cell line (ACHN), breast cancer cell line (MDA-MB-231), colorectal cancer cell line (HCT-15), prostate cancer cell line (PC-3), gastric cancer cell line (NUGC-3) and lung cancer cell line (NCl-H23)).
(§2) At this time, the cancer cell lines (renal cancer cell line (ACHN), breast cancer cell line (MDA-MB-231), colorectal cancer cell line (HCT-15), prostate cancer cell line (PC-3), gastric cancer cell line (NUGC-3) and lung cancer cell line (NCl-H23)) above were purchased from American Type Culture Collection (Manassas, Va., USA). Cells were cultured in RPMI 1640 supplemented with 10% fetal bovine serum, which were maintained 37° C. under 5% CO2 wet atmosphere. The cells were distributed in a 96-well plate, which was not treated (treated only with 0.1% DMSO) or treated with the compounds of examples of the present (0.1 μM to 10 μM). 48 hours later, the cells were fixed in 50% trichloroacetic acid, followed by staining with 1% acetic acid containing 0.4% sulphorodamine B dissolved therein. The non-conjugated dye was removed by washing with 1% acetic acid, and the protein conjugated dye was extracted with 10 mM Tris base (pH 10.5). Then, OD540 was measured with VersaMax microplate reader (Molecular devices, Sunnyvale, Calif., USA). GI50 was calculated by using GraphPad Prism software (GraphPad Software, Inc., San Diego, Calif., USA).
(§3) Based on the results obtained in experimental example 1-1 above, the derivatives wherein R^1 is phenyl were additionally synthesized. The cancer proliferation inhibitory activity of the derivatives was evaluated by the same manner as described in experimental example 1-1.

HDAC 8 = target: T1, HDAC 8 (Homo sapiens, UniProt Q9BY41); experiment: HDAC enzyme fluorescence assay, HDAC 8; format: biochemical; set-up: Inhibitory activity (%) HDAC 8: concentration or dose not given beside the values; conditions: (HDAC inhibitory activity of example compound/HDAC inhibitory activity of SAHA) × 100
T1 sequence (Q9BY41 1-377): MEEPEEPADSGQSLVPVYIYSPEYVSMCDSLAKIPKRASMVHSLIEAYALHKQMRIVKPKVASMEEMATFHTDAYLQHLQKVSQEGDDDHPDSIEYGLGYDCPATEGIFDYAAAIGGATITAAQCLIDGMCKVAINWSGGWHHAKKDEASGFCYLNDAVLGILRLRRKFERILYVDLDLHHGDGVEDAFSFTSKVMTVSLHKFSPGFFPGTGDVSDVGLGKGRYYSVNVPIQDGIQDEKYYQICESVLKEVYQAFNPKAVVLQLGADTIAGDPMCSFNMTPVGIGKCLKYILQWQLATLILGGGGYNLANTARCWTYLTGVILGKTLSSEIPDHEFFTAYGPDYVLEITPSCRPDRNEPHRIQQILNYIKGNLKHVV
Protocol: Particularly, HDAC enzyme analysis was performed based on a uniform fluorescence emission assay. First, the compounds of examples of the present invention or comparative example 1 were diluted at different concentrations, which were treated to the analysis buffer containing 25 mM HEPES (pH 8.0), 137 mM NaCl, 1 mM MgCl2 and 2.7 mM KCL, followed by culture of the recombinant HDAC enzyme. 10 minutes later, Boc-Lys(acetyl)-AMC, the fluorescence inducing substrate, was added thereto, followed by further culture at 37° C. At this time, the concentration of the fluorescence inducing substrate and the culture time were adjusted according to the isotypes of the HDAC enzyme. The reaction was terminated by treating trypsin at room temperature for 20 minutes. The fluorescence intensity was measured using a fluorescence analyzer at an excitation wavelength of 380 nm and an emission wavelength of 460 nm, respectively. The inhibition rate was calculated from the measured fluorescence intensity of each well with comparing to that of the control well. IC50 of the compound was calculated by analyzing the dose-reaction inhibition curve.
The HDAC 8 inhibitory activity was presented as percentage of relative activity by the inhibitory activity of SAHA (Vorinostat) used as a reference compound.

[2] = test system: prostate cancer cell line (PC-3); experiment: Cancer proliferation inhibitory activity (SRB, GI50), PC-3; format: cell-based; conditions: Homo sapiens, 48 hours
Excerpt: as §1, §2, §3

[3] = test system: renal cancer cell line (ACHN); experiment: Cancer proliferation inhibitory activity (SRB, GI50), ACHN; format: cell-based; conditions: Homo sapiens, 48 hours
Excerpt: as §1, §2, §3

[4] = test system: lung cancer cell line (NCl-H23); experiment: Cancer proliferation inhibitory activity (SRB, GI50), NCI-H23; format: cell-based; conditions: Homo sapiens, 48 hours
Excerpt: as §1, §2, §3

[5] = test system: colorectal cancer cell line (HCT-15); experiment: Cancer proliferation inhibitory activity (SRB, GI50), HCT-15; format: cell-based; conditions: Homo sapiens, 48 hours
Excerpt: as §1, §2, §3

[6] = test system: breast cancer cell line (MDA-MB-231); experiment: Cancer proliferation inhibitory activity (SRB, GI50), MDA-MB-231; format: cell-based; conditions: Homo sapiens, 48 hours
Excerpt: as §1, §2, §3

SMILES	GI50 [1]	Inhibitory activity (%) HDAC 8 (HDAC 8)	GI50 [2]	GI50 [3]	GI50 [4]	GI50 [5]	GI50 [6]
[O-][S+](C/C=C\SSCc1ccc(Cl)c(Cl)c1)c1ccccc1 (stereo not shown) [Example 14, (Z)-1-(3,4-dichlorobenzyl)-2-(3-(phenylsulfinyl)prop-1-enyl)disulfane]	8.51 µM	146.4%	4.55 µM	7.68 µM	7.35 µM	> 10 µM	4.78 µM
C=CC[S+]([O-])C/C=C\SSCc1ccccc1 (stereo not shown) [Comparative Example 3, (Z)-1-(3-(allylsulfinyl)prop-1-enyl)-2-benzyldisulfane, reference compound]	2.05 µM	–	2.31 µM	3.26 µM	3.59 µM	4.96 µM	4.64 µM
COc1ccc([S+]([O-])C/C=C/SSCc2ccc(F)cc2)cc1 (stereo not shown) [Example 33, (E)-1-(4-fluorobenzyl)-2-(3-(4-methoxyphenylsulfinyl)prop-1-enyl)disulfane]	0.24 µM	111.7%	0.29 µM	0.17 µM	0.27 µM	0.25 µM	0.16 µM
[O-][S+](C/C=C/SSCc1ccc(Cl)c(Cl)c1)c1ccccc1 (stereo not shown) [Example 13, (E)-1-(3,4-dichlorobenzyl)-2-(3-(phenylsulfinyl)prop-1-enyl)disulfane]	1.77 µM	76.6%	2.3 µM	1.97 µM	2.92 µM	2.78 µM	7.5 µM
COc1ccc(CSS/C=C/C[S+]([O-])c2ccccc2)cc1 (stereo not shown) [Example 9, (E)-1-(4-methoxybenzyl)-2-(3-(phenylsulfinyl)prop-1-enyl)disulfane]	1.43 µM	48.7%	2.72 µM	2.94 µM	1.45 µM	3.03 µM	1.54 µM
C=CCSS/C=C/C[S+]([O-])c1cccc(OC)c1 (stereo not shown) [Example 15, (E)-1-allyl-2-(3-(3-methoxyphenylsulfinyl)prop-1-enyl)disulfane]	2.95 µM	84.6%	3.02 µM	2.56 µM	3.42 µM	2.58 µM	4.51 µM
CCCSS/C=C/C[S+]([O-])c1ccc(OC)cc1 (stereo not shown) [Example 29, (E)-1-(3-(4-methoxyphenylsulfinyl)prop-1-enyl)-2-propyldisulfane]	2.04 µM	69.9%	2.41 µM	1.65 µM	1.41 µM	1.48 µM	2.2 µM
CCCSS/C=C/C[S+]([O-])Cc1ccccc1 (stereo not shown) [Comparative Example 6, (E)-1-(3-(benzylsulfinyl)prop-1-enyl)-2-propyldisulfane, reference compound]	3.27 µM	–	–	–	2.93 µM	3.03 µM	2.19 µM
[O-][S+](C/C=C/SSCc1ccccc1)c1ccccc1 (stereo not shown) [Example 5, (E)-1-benzyl-2-(3-(phenylsulfinyl)prop-1-enyl)disulfane]	3.71 µM	88.6%	3.19 µM	5.75 µM	2.98 µM	3.97 µM	6.27 µM
COc1ccc([S+]([O-])C/C=C/SSCc2ccc(Cl)c(Cl)c2)cc1 (stereo not shown) [Example 37, (E)-1-(3,4-dichlorobenzyl)-2-(3-(4-methoxyphenylsulfinyl)prop-1-enyl)disulfane]	5.48 µM	106.1%	5.17 µM	3.75 µM	3.09 µM	3.32 µM	4.19 µM
C=CCSS/C=C\C[S+]([O-])Cc1ccccc1 (stereo not shown) [Comparative Example 4, (Z)-1-allyl-2-(3-(benzylsulfinyl)prop-1-enyl)disulfane, reference compound]	8.07 µM	–	3.28 µM	5.32 µM	5.98 µM	5.93 µM	–
COc1ccc([S+]([O-])C/C=C/SSCc2ccccc2)cc1 (stereo not shown) [Example 31, (E)-1-benzyl-2-(3-(4-methoxyphenylsulfinyl)prop-1-enyl)disulfane]	–	74.6%	–	–	–	–	–
COc1cccc([S+]([O-])C/C=C\SSCc2ccccc2)c1 (stereo not shown) [Example 20, (Z)-1-benzyl-2-(3-(3-methoxyphenylsulfinyl)prop-1-enyl)disulfane]	3.78 µM	114.3%	2.96 µM	3.72 µM	3.46 µM	2.6 µM	4.34 µM
COc1cccc([S+]([O-])C/C=C/SSCc2ccc(Cl)c(Cl)c2)c1 (stereo not shown) [Example 25, (E)-1-(3,4-dichlorobenzyl)-2-(3-(3-methoxyphenylsulfinyl)prop-1-enyl)disulfane]	–	138.9%	–	–	–	–	–
C=CCSS/C=C/C[S+]([O-])c1ccccc1 (stereo not shown) [Example 1, (E)-1-allyl-2-(3-(phenylsulfinyl)prop-1-enyl)disulfane]	–	32.1%	–	–	–	–	–
[O-][S+](C/C=C\SSCc1ccc(F)cc1)Cc1ccccc1 (stereo not shown) [Comparative Example 9, (Z)-1-(3-(benzylsulfinyl)prop-1-enyl)-2-(4-fluorobenzyl)disulfane, reference compound]	–	–	–	2.32 µM	–	–	3.24 µM
[O-][S+](C/C=C\SSCc1ccc(F)cc1)c1ccccc1 (stereo not shown) [Example 8, (Z)-1-(4-fluorobenzyl)-2-(3-(phenylsulfinyl)prop-1-enyl)disulfane]	–	24.9%	–	–	–	–	–
C=CCSS/C=C/C[S+]([O-])Cc1ccccc1 (stereo not shown) [Comparative Example 5, (E)-1-allyl-2-(3-(benzylsulfinyl)prop-1-enyl)disulfane, reference compound]	10.3 µM	–	6.85 µM	4.43 µM	4.41 µM	9.1 µM	5.45 µM
C=CCSS/C=C\C[S+]([O-])c1ccccc1 (stereo not shown) [Example 2, (Z)-1-allyl-2-(3-(phenylsulfinyl)prop-1-enyl)disulfane]	–	37.5%	–	–	–	–	–
CCCSS/C=C\C[S+]([O-])c1ccccc1 (stereo not shown) [Example 4, (Z)-1-(3-(phenylsulfinyl)prop-1-enyl)-2-propyldisulfane]	–	115.2%	–	–	–	–	–
C=CCSS/C=C\C[S+]([O-])c1cccc(OC)c1 (stereo not shown) [Example 16, (Z)-1-allyl-2-(3-(3-methoxyphenylsulfinyl)prop-1-enyl)disulfane]	–	105.3%	–	–	–	–	–
[O-][S+](C/C=C/SSCc1ccccc1)Cc1ccccc1 (stereo not shown) [Comparative Example 7, (E)-1-benzyl-2-(3-(benzylsulfinyl)prop-1-enyl)disulfane, reference compound]	–	–	3.88 µM	4.22 µM	6.41 µM	–	–
[O-][S+](C/C=C/SSCc1ccc(F)cc1)Cc1ccccc1 (stereo not shown) [Comparative Example 8, (E)-1-(3-(benzylsulfinyl)prop-1-enyl)-2-(4-fluorobenzyl)disulfane, reference compound]	–	–	2.04 µM	4.1 µM	2.83 µM	2.27 µM	–
